From US5527796A, “Thienothiazine derivatives and their use” (Chemisch Pharmazeutische Forschungsgesellschaft m.b.H., priority 1992, dated 1996) come the findings set out here.

For assay [1], the system named is cyclooxygenase. The experiment in a line: formation of PGD2 by neutrophils as a measure for cyclooxygenase activity (A23187-stimulated, RIA). It counts as cell-based, Male Sprague Dawley rats. The conditions noted are these: for IC50: rat neutrophils, A23187 2 μmol/l, 5 min at 37° C., RIA of PGD2. How it is done: (§1) The formation of PGD2 by neutrophils was used as a measure for cyclooxygenase activity and the formation of LTB4 was used as a measure for 5-lipoxygenase activity.
(§2) Male Sprague Dawley rats (250-300 g) were injected with lambda carrageenan 1 mg intraperitoneally (dissolved in 0.5 ml dest.water) per animal. After 16 hours the rats were killed by exposure to diethylether. 15 ml ice cold Hanks balanced salt solution were injected i.p., neutrophils harvested by aspiration (10 ml), centrifuged (5 min, 100 g, 4° C.), the supernatant decanted and cells resuspended in HBSS at 4° C. to 5×10^6 cells/mi. 400 μl cell suspension (2×10^6 cells), 0.5 μl drugs dissolved in DMSO and 49.5 μl HBSS were incubated for 5 min at 37° C. Then 50 μl A23187 (2 μmol/l final conc.) were added followed by 5 min incubation at 37° C. The reaction was stopped by centrifugation for 30 s at 10000 g and the supernatant transferred to precooled plastic tubes and kept in an ice bath for max. 1 hour before starting RIA. PGD2 and LTB4 in the samples were measured after appropriate dilution with HBSS using commercial RIA kits.
(§3) Using the above mentioned methods the new compounds were tested. The inhibition of cyclooxygenase and of 5-lipoxygenase was measured.

Assay [2] has as its target T1, 5-lipoxygenase (Rattus norvegicus, UniProt P12527).
T1 construct: neutrophils harvested by aspiration; endogenous in cells; host or cells: peritoneal neutrophils of male Sprague Dawley rats, harvested 16 h after intraperitoneal carrageenan
T1 sequence (P12527 1-673): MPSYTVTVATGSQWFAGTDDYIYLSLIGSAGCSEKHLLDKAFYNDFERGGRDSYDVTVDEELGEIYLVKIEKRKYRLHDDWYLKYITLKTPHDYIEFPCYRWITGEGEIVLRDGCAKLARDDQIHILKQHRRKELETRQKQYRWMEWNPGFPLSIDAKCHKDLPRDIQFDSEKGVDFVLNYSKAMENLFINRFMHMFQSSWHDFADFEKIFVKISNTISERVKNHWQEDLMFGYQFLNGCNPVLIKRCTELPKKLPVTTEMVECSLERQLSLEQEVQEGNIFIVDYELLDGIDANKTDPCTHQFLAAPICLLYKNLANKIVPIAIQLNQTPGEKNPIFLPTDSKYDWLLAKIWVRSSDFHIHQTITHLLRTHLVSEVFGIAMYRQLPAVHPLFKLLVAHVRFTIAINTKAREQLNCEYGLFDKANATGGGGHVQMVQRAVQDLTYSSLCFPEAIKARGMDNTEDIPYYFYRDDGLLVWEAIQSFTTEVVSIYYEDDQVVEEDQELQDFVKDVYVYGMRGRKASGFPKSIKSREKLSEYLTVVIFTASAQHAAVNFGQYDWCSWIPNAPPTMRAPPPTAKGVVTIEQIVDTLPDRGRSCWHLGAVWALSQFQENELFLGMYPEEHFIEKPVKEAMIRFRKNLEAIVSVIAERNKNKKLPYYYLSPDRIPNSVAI
As to the kind of experiment: formation of LTB4 by neutrophils as a measure for 5-lipoxygenase activity (A23187-stimulated, RIA). In kind it is cell-based, Male Sprague Dawley rats. The conditions noted are these: A23187 2 μmol/l, 5 min at 37° C. How it is done:
as §1, §2, §3

Consider `CN1C(C(=O)Nc2ccccn2)=C(O)c2sc(Cl)cc2S1(=O)=O` [Compound A, 6-chloro-4-hydroxy-2-methylo-N-(2-pyridyl)-2h-thieno[2,3-e]-1,2-thiazine-3-carboxamide-1,1-dioxide, reference compound], for which, in assay [1] (PGD2 formation), the “inhibition of cyclooxygenase (in words)” value is “inhibited only cyclooxygenase”. In addition, the half-inhibitory concentration (IC50) (usually the point on the concentration scale where inhibition reaches its midpoint) is 20 nM in assay [1] and above 10000 nM in assay [2].
Regarding `CN1C(C(=O)Nc2cccc(CCc3ccccc3)n2)=C(O)c2sc(Cl)cc2S1(=O)=O` [Example 4, 6-Chloro-4-hydroxy-2-methyl-N-[6-(2-phenylethyl)-2-pyridyl]-2H-thieno[2,3-e]-1,2-thiazine-3-carboxamide-1,1-dioxide], the IC50 stood at 190 nM in assay [1] and 2700 nM in assay [2].
On the same counts, the results for `CN1C(C(=O)Nc2cccc(C#Cc3ccccc3)n2)=C(O)c2sc(Cl)cc2S1(=O)=O` [Example 7, 6-Chloro-4-hydroxy-2-methyl-N-[6-phenylethinyl]-2-pyridyl-2H-thieno[2,3-e]-1,2-thiazin-3-carbox-amide-1,1,-dioxide] are 410 nM and 3700 nM.
On the same counts, the results for `CN1C(C(=O)Nc2cccc(CCCc3ccccc3)n2)=C(O)c2sc(Cl)cc2S1(=O)=O` [Example 8, 6-Chloro-4-hydroxy-2-methyl-N-[6-(3-phenylpropyl)]-2-pyridyl-2H-thieno[2,3-e]-1,2-thiazin-3-carbox-amide-1,1,-dioxide] are 510 nM and 4200 nM.
On the same counts, the results for `CN1C(C(=O)Nc2cccc(CCCCc3ccccc3)n2)=C(O)c2sc(Cl)cc2S1(=O)=O` [Example 9, 6-Chloro-4-hydroxy-2-methyl-N-[6-(4-phenylbutyl)]-2-pyridyl-2H-thieno[2,3-e]-1,2-thiazin-3-carbox-amide-1,1,-dioxide] are 750 nM and 1900 nM.
Consider `CN1C(C(=O)Nc2cccc(COc3ccc(F)cc3)n2)=C(O)c2sc(Cl)cc2S1(=O)=O` [Example 10, 6-Chloro-4-hydroxy-2-methyl-N-[6-(4-fluorphenoxy-methyl)]-2-pyridyl-2H-thieno[2,3-e]-1,2-thiazin-3-carboxamide-1,1,-dioxide], for which the results for the half-inhibitory concentration (IC50) in assay [1] and in assay [2] were 450 nM and 4800 nM, respectively.
In the case of `CN1C(C(=O)Nc2cccc(COc3ccccc3)n2)=C(O)c2sc(Cl)cc2S1(=O)=O` [Example 11], the results for the IC50 in assay [1] and in assay [2] were 120 nM and 7300 nM, respectively.
On to `CN1C(C(=O)Nc2cccc(-c3cc4ccccc4o3)n2)=C(O)c2sc(Cl)cc2S1(=O)=O` [Example 12, 6-Chloro-4-hydroxy-2-methyl-N-[6-(2-benzo(b)furyl)]-2-pyridyl-2H-thieno[2,3-e]-1,2-thiazin-3-carbox-amide-1,1,-diol], for which the half-inhibitory concentration (IC50) in assay [1] came to 16 nM; in assay [2], 2000 nM.
Regarding `CN1C(C(=O)Nc2cccc(OCc3ccccc3)n2)=C(O)c2sc(Cl)cc2S1(=O)=O` [Example 13, 6-Chloro-4-hydroxy-2-methyl-N-[6-phenylmethoxy]-2-pyridyl-2H-thieno[2,3-e]-1,2-thiazin-3-carbox-amide-1,1,-dioxide], the half-inhibitory concentration (IC50) in assay [1] was found to be 150 nM; in assay [2], 5100 nM.
On the same counts, the results for `CN1C(C(=O)Nc2cccc(/C=C/c3ccccc3)n2)=C(O)c2sc(Cl)cc2S1(=O)=O` [Example 14, 6-Chloro-4-hydroxy-2-methyl-N-[6-((E)-2-phenylethenyl)]-2-pyridyl-2H-thieno[2,3-e]-1,2-thiazin-3-carbox-amide-1,1,-dioxide] are 180 nM and 4300 nM.
On to `CN1C(C(=O)Nc2cccc(OCc3ccc4ccccc4n3)n2)=C(O)c2sc(Cl)cc2S1(=O)=O` [Example 17, 6-Chloro-4-hydroxy-2-methyl-N-[6-quinalinylmethoxy]-2-pyridyl-2H-thieno[2,3-e]-1,2-thiazin-3-carbox-amide-1,1,-dioxide], for which the IC50 amounted to 660 nM in assay [1] and 2000 nM in assay [2].
On to `CN1C(C(=O)Nc2cccc(OCc3cc4ccccc4s3)n2)=C(O)c2sc(Cl)cc2S1(=O)=O` [Example 20], for which the IC50 is 350 nM in assay [1] and 3200 nM in assay [2].
